“Also recorded” adds a separate entry of the source.
Key:
smo expression = assay: qPCR analysis of smo expression in NIH3T3 cells expressing wild type or M2 mSmo; assay type: cell-based, mouse; settings: thapsigargin treatment
Description: (§1) To assess gli1 and smo expression, NIH3T3 cells were plated as above and transfected using Fugene 6 (Promega). Approximately 30 hours post transfection, culture media was replaced with complete media containing 250 nM Thapsigargin or vehicle (ethanol) control. RNA was extracted using RNeasy kit (Qiagen) ˜16 hours after media exchange. cDNA was synthesized from 5 ug of RNA using SuperScript III first strand synthesis system (Invitrogen). qPCR reactions were performed on cDNA diluted 1:10 using SYBR Green PCR master mix (Applied Biosystems). GAPDH was used as a reference gene and results were analyzed using a standard 2^−ααCt method (Livak & Schmittgen, 2001 [63]). The following gene specific primers were used: […]
(§2) qPCR analysis was performed three times in triplicate, and all data pooled. Error bars indicate standard error of the mean.

[1] = system: GFP transgene under control of MS1096-Gal4; assay: Thapsigargin feeding of MS1096>GFP larvae: transgene expression in wing imaginal discs; assay type: in vivo, Drosophila; settings: larvae fed thapsigargin (1 uM in food) at 22° C.
Description: (§3) To confirm that thapsigargin treatment of transgenic Drosophila would not nonspecifically alter UAS/GAL4 transgene expression, the effect of feeding thapsigargin or vehicle control to larvae expressing a GFP transgene under control of the MS1096-Gal4 wing pouch driver was first tested (FIG. 8A). […] Next either wild type or C320A Myc-Smo proteins were expressed at 22° C. under control of MS1096-Gal4, and grew larvae on food containing either vehicle or thapsigargin (FIGS. 8C-D). Consistent with the in vitro results, wings from wild type Myc-Smo expressing flies were unaffected by thapsigargin treatment (FIGS. 8C-C′ compared to B, control).
(§4) For drug treatment, 1 to 24 hour MS1096>myc-smoC320A embryos were collected and transferred to vials containing 2 mL Jazz agarose containing vehicle (ethanol) or thapsigargin (Sigma) at a final concentration of 1 uM. Drug feeding was performed across two separate crosses and multiple progeny analyzed. Representative wings from the resulting adult flies were mounted and imaged as above.

wild type mSmo = assay: Thapsigargin sensitivity analysis: mSmo protein stability in NIH3T3 cells, western blot of whole-cell lysates; assay type: cell-based, mouse; settings: 1 uM thapsigargin, 4 hours prior to lysis, vs vehicle
Description: (§5) Next, it was decided to determine whether the effects observed following thermal ER stress induction could be recapitulated by an ER stress modulator that is specific to the UPR. To this end, Smo-expressing cells were treated with the potent ER stress inducing compound thapsigargin. Wild type, C318A or M2 mSmo proteins was expressed in NIH3T3 cells, and treated with vehicle or thapsigargin for 4 hours prior to lysis (FIG. 6A). […] The exact mechanism by which gli1 expression is increased in the wild type mSmo background in response to thapsigargin was not known.
(§6) For protein stability analysis in mammalian cells, ˜1×10^6NIH3T3 cells were transfected with 2 ug of wild type or mutant pcDNA3.1-amino expression vector (Carroll et al., 2012 [31]). For temperature sensitivity analysis, transfected cells were maintained at 37° C. for ˜44 hours, and then shifted to 40° C. for 4 hours prior to lysis. Whole-cell lysates were prepared in modified RIPA buffer (50 mM Tris-HCl, pH 7.4, 150 mM NaCl, 0.25% deoxycholic acid, 1% NP-40, 1 mM EDTA, 0.1% SDS, 0.5 mM DTT, and 1× PIC (Roche)) by rocking for 30 minutes at 4° C. as described (Nachtergaele et al., 2012 [62]). Cell extracts were cleared by centrifuging at 16,000×g at 4° C. for 45 minutes. Supernatants were collected and analyzed by SDS-Page and western blot using anti-GADD153/CHOP (B-3, SCBT) anti-Smo (E5, SCBT) and anti-tubulin (Cell Signaling) antibodies. For thapsigargin sensitivity analysis, NIH3T3 cells expressing wild type or mutant mSmo protein at 37° C. were treated with vehicle (ethanol) or 1 uM thapsigargin (Sigma) in DMEM containing 0.5% fetal calf serum for 4 hrs prior to lysis. Whole-cell lysates were prepared in modified RIPA buffer and analyzed as above.

C318A mSmo = assay: as above; assay type: cell-based, mouse; settings: 1 uM thapsigargin, 4 hours prior to lysis, vs vehicle
Description: as §5, §6

M2 mSmo (mSmoM2) = assay: as above; assay type: cell-based, mouse; settings: 1 uM thapsigargin, 4 hours prior to lysis, vs vehicle
Description: as §5, §6

[2] = system: C320A-mediated ectopic stabilization of Ci; assay: Immunofluorescence of wing imaginal discs from drug-fed larvae: full-length Ci; assay type: in vivo, Drosophila; settings: discs from thapsigargin-fed larvae at 22° C. vs vehicle
Description: as §3, §4
(§7) pAc-myc-smo constructs were expressed in Schneider 2 (S2) cells as described (Carroll et al., 2012 [31]). […] For all indirect immunofluorescence, the indicated primary antibodies were detected using Alexa Fluor (Invitrogen) secondary antibodies conjugated to 488 or 555 fluorophores. […]

[3] = system: wings from wild type Myc-Smo expressing flies; assay: Thapsigargin feeding of larvae: adult wing phenotype, wild type Myc-Smo; assay type: in vivo, Drosophila; settings: larvae grown at 22° C. on food containing thapsigargin (1 uM) vs vehicle
Description: as §3
(§8) Fly stocks were maintained at 18° C. on Jazz mix agarose (Fisher). Crosses were performed at 22° C. or 29° C. as indicated. UAS-myc-smo, UAS-myc-smoC320A and UAS-mycsmoC339A (Carroll et al., 2012 [31]) were expressed under control of MS1096-Gal4. UAS-Xbp1-GFP (Ryon et al., 2007 [44]) was expressed under control of sgs3-Gal4. […] For wing analyses, crosses were performed at least twice, and multiple progeny analyzed. […]
as §4, with “Representative wings from the resulting adult flies were mounted and imaged as above.” left out

[4] = system: mSmoM2-induced gli1 expression; assay: qPCR analysis of endogenous gli1 induction in NIH3T3 cells expressing mSmoM2; assay type: cell-based, mouse
Description: as §5
as §1, with “Approximately 30 hours post transfection, culture media was replaced with complete media containing 250 nM Thapsigargin or vehicle (ethanol) control.” left out
as §2

[5] = system: gli1 expression in cells expressing wild type mSmo; assay: qPCR analysis of gli1 expression in NIH3T3 cells expressing wild type mSmo; assay type: cell-based, mouse; settings: wild type mSmo-expressing NIH3T3 cells with thapsigargin; normalized to GAPDH
Description: as §5, §1
qPCR analysis was performed three times in triplicate, and all data pooled. […]

[6] = system: Myc-SmoC320A-induced Hh gain-of-function wing phenotypes; assay: Thapsigargin feeding of larvae: adult wing phenotype, Myc-SmoC320A; assay type: in vivo, Drosophila; settings: larvae grown at 22° C. on food containing thapsigargin (1 uM) vs vehicle
Description: as §3, §8
as §4, with “Representative wings from the resulting adult flies were mounted and imaged as above.” left out

Myc-SmoC320A protein = assay: Immunofluorescence of wing imaginal discs from drug-fed larvae: Myc-SmoC320A protein; assay type: in vivo, Drosophila; settings: discs from thapsigargin-fed larvae at 22° C. vs vehicle
Description: as §3, §4, §7

Structure (SMILES): C/C=C(/C)C(=O)O[C@H]1C(C)=C2[C@H]([C@@H]1OC(=O)CCCCCCC)[C@@](C)(OC(C)=O)C[C@H](OC(=O)CCC)[C@@]1(O)[C@H]2OC(=O)[C@@]1(C)O [thapsigargin]
- smo expression (wild type and M2 transcripts) (smo expression): modest increase; also recorded: increased modestly
- GFP transgene expression [1]: unaffected
- wild type mSmo protein stability (wild type mSmo): not significantly affected
- C318A mSmo protein stability (C318A mSmo): destabilized
- M2 mSmo protein stability (M2 mSmo (mSmoM2)): destabilized
- C320A-mediated ectopic stabilization of Ci in wing imaginal discs [2]: reduced Ci stabilization; also recorded: dramatically reduced
- wing phenotype of wild type Myc-Smo expressing flies [3]: unaffected
- wing phenotype of wild type Myc-Smo expressing flies ([3]; listed as Thapsigargin): did not affect
- reduction of mSmoM2-mediated gli1 induction ([4]; NIH3T3 cells, 250 nM thapsigargin ~16 hours (method), vehicle gives approx. 40-fold): approximately 50%
- mSmoM2-induced gli1 expression (qualitative) ([4]; NIH3T3 cells, over-night treatment with 200 nM thapsigargin (FIG. 6B legend)): specific attenuation
- gli1 expression, fold over the mSmoWT baseline ([4]; mSmoM2-expressing NIH3T3 cells with thapsigargin, normalized to GAPDH): ~18 fold
- gli1 expression, fold over baseline [5]: ~4 fold
- Myc-SmoC320A-induced Hh gain-of-function wing phenotype [6]: significantly attenuated; also recorded: significantly reduced
- Myc-SmoC320A protein level in wing imaginal discs (Myc-SmoC320A protein): significantly reduced; also recorded: significant reduction

Reference: US20150320723A1, “Use of Small Molecule Unfolder Protein Response Modulators to Treat Tumors With Active Sonic Hedgehog (SSH) Signaling Due To Smoothened (SMO) Mutation” (ST. JUDE CHILDREN'S RESEARCH HOSPITAL, priority 2013, published 2015)
